Measurements reported in patent US6362394B1, “Juvenile hormone or one of its agonists as a chemical ligand to control gene expression in plants by receptor mediated transactivation” (Syngenta Participations AG, priority 1995, dated 2002).

Legend:
[1] = target: T1, RXRα (Homo sapiens, UniProt P19793); details: insect and mammalian cells; cited from earlier work
T1 construct: host or cells: insect and mammalian cells (as reported by Harmon et al.)
T1 sequence (P19793 1-462): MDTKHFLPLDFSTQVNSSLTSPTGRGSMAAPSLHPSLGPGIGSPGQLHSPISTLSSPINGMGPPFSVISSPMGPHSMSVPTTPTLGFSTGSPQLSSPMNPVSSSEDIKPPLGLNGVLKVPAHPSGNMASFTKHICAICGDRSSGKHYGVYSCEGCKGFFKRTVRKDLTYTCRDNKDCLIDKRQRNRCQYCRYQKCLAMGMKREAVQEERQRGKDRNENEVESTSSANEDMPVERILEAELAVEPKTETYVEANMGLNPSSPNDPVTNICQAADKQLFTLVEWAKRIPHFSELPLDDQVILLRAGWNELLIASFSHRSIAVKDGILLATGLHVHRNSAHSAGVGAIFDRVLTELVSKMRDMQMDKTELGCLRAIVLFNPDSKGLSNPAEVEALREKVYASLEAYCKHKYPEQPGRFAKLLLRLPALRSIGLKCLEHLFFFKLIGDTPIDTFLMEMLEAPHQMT

[2] = target: T2, USP (Drosophila melanogaster, UniProt P20153); details: Drosophila cell-culture assays; conditions in which RXR is responsive; cited from earlier work
T2 construct: host or cells: Drosophila cell culture (as reported by Oro et al. and Harmon et al.)
T2 sequence (P20153 1-508): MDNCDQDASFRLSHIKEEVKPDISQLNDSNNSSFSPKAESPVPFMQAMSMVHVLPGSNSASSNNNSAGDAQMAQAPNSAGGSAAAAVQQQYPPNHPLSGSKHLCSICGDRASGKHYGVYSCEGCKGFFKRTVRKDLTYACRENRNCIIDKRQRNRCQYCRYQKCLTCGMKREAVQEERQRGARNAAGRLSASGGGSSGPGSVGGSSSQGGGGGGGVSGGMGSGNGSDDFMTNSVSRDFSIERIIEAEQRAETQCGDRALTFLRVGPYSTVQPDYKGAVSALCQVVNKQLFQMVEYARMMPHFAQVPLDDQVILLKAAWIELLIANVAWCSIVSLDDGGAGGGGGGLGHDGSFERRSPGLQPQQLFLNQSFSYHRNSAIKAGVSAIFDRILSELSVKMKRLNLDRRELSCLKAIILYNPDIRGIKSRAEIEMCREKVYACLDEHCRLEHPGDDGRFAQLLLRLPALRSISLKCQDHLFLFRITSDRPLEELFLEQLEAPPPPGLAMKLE

[3] = target: T3, receptor polypeptides GAL4-EcR^330-825-C1 and USP-VP16 (Drosophila melanogaster, UniProt P20153); assay: Reversal by juvenile hormone agonists of GAL4-EcR-C1 + USP-VP16 activation of a luciferase target cassette in transformed maize cells; format: cell-based; details: 10 μM ligand, approximately 48 hours
T3 construct: expressed in transfected cells; host or cells: maize suspension cells, microprojectile bombardment
T3 sequence (P06492 411-490, one chain of several): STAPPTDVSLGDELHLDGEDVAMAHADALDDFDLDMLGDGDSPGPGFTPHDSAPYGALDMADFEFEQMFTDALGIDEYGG
Source text: (§1) Control of target polypeptide expression by various receptor polypeptides, including the chimeric receptor polypeptides of the present invention, can be shown by simultaneously transforming plant cells with the necessary gene constructions using high velocity microprojectile bombardment, followed by biochemical assay for the presence of the target polypeptide. The necessary gene constructions comprise a USP receptor expression cassette which encodes a USP receptor polypeptide (FIG. 1). Optionally, the USP receptor expression cassette may be transformed along with a secondary receptor expression cassette which encodes a receptor polypeptide distinct from USP (FIGS. 2 and 3). In addition, a target expression cassette which encodes a target polypeptide is also necessary.
(§2) The expression cassettes were simultaneously delivered to maize suspension cells cultured in liquid N6 medium (Chu et al. Scientia Sinica XVIII:659-668, 1975) by high velocity microprojectile bombardment using standard techniques of DNA precipation onto microprojectiles and high velocity bombardment driven by compressed helium (PDS1000/He, BioRad, Hercules, Calif.). Transfected cells were incubated in liquid suspension in the presence of the appropriate chemical ligand for approximately 48 hours in N6 media. After incubation, the transformed cells were harvested then homogenized at 0° C. Debris in the extracts was removed by centrifugation at 10,000 g at 4° C. for 5 minutes.
(§3) Target polypeptide expression was detected by assaying the extract for the presence of the product encoded by the target expression cassette. One commonly used coding sequence for the target polypeptide when testing control of expression by the receptor polypeptides in the presence of a chemical ligand is firefly luciferase. The activity of firefly luciferase is determined by quantitating the chemiluminescence produced by luciferase catalyzed phosphorylation of luciferin using ATP as substrate (Promega Luciferase Kit, cat. no. E1500), using an Analytical Luminescence Model 2001 luminometer. […]

[4] = target: T4, receptor polypeptides GAL4-EcR^330-825-C1 and USP-VP16 (Drosophila melanogaster, UniProt P20153+P34021); assay: Tebufenozide-induced activation by GAL4-EcR-C1 + USP-VP16 of a luciferase target cassette in maize cells, and its block by methoprene; format: cell-based; details: approximately 48 hours
T4 construct: expressed in transfected cells; host or cells: maize suspension cells, microprojectile bombardment
Source text: as §1, §2, §3

[5] = target: T5, receptor polypeptide VP16-USP (Drosophila melanogaster, UniProt P20153); assay: VP16-USP activation of a direct repeat luciferase target cassette in transformed maize cells; format: cell-based; design: expressed in transfected cells; details: 35S/VP16-USP, target (DR3)3-Bz1TATA/Luc, 10 μM ligand, 48 hours, no ligand 29,967
T5 sequence (P06492 413-490, one chain of several): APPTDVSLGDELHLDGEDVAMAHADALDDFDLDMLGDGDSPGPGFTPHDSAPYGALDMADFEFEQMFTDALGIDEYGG
Source text: as §1, with “necessary. […]” for “necessary.”
as §3, with “One commonly used coding sequence for the target polypeptide when testing control of expression by the receptor polypeptides in the presence of a chemical ligand is firefly luciferase.” left out

[6] = target: T5, receptor polypeptide VP16-USP; assay: Chemical induction of luciferase in isolated leaves of transgenic Arabidopsis expressing VP16-USP with a DR-Luciferase reporter; format: cell-based; design: expressed in transfected cells; host or cells: transgenic Arabidopsis thaliana (Columbia), isolated leaves; Agrobacterium T-DNA construct; details: approximately 24 hours; for Fold increase in luciferase activity: 10 μM; for Luciferase Activity: 35S/VP16-USP, 10 μM ligand in 0.1% ethanol, light units per 10 seconds per 100 μg extract protein, control 638
Description: Arabidopsis thaliana (Columbia) was transformed with an Agrobacterium vector harboring a CaMV 35S promoter and a DR-Luciferase reporter (as described in Example 13 above) by the following vacuum-infiltration procedure. Electrocompetent GV3101 Agrobacterium cells were prepared by incubating GV3101 Agrobacterium in 2×YT media at 28° C. with aeration for 24-30 hours to an OD600 of 0.5-0.7 units. Cells were chilled on ice for 10-30 minutes, and centrifuged at 5,000 RPM for 5 minutes at 4° C. The supernatant was discarded, and the cell pellet resuspended in 1 volume of ice-cold 10% glycerol. Cells were again centrifuged at 5,000 RPM for 5 minutes at 4° C. The supernatant was discarded, and the cell pellet resuspended in 0.05 volumes of ice-cold 10% glycerol. Cells were again centrifuged at 5,000 RPM for 5 minutes at 4° C. The supernatant was discarded, and the cell pellet resuspended in 0.02 volume of ice-cold 10% glycerol. Cells were again centrifuged at 5,000 RPM for 5 minutes at 4° C. The supernatant was discarded, and the cell pellet resuspended 0.02 volume of ice-cold 10% glycerol. Cells were again centrifuged at 5,000 RPM for 5 minutes at 4° C. The supernatant was discarded, and the cell pellet resuspended in 0.01 volume of ice-cold 10% glycerol. Cells were aliquoted in […] amounts per 1.5 ml microfuge tubes, quick-frozen in liquid N2, and stored at −80° C. Electrocompetent cells were used before 6 weeks storage at −80° C. Frozen electrocompetent cells were thawed on ice and 40 ml transfered to a pre-chilled 1.5 ml microfuge tube. 1 ml of the appropriate Agrobacterium plasmid DNA (2-10 ng) was added to the thawed cells and mixed on ice. The cell/plasmid mixture was transfered to a prechilled 0.2 cm Bio-Rad electroporation cuvette, and electroporated at 2.0 KVolts, 600 Ohms, 25 μFarad, with a 6 msec time constant. 1 †ml of 2×YT media was added to the electroporation cuvette, the cell/plasmid solution was mixed with a pipet tip, and the contents transfered to a fresh 1.5 ml microfuge tube. Cells were then incubated at […] for 1 hour on a shaker at 200 RPM. The cells were centrifuged down for 2 minutes at a setting of 6 in an Eppendorph adjustable-speed microfuge, the supernatant decanted, and the cell pellet resuspended in the remaining liquid. Resuspended cells were spread on an LB media plate with the appropriate antibiotic. Plates were incubated at 28-30° C. for […]. A 50 ml LB culture was innoculated with a single transformed colony in a 250 ml flask with Rifampicin at 100 μg/ml and Gentomycin at 25 μg/ml and Kanamycin at 100 μg/ml. The culture was incubated for 24-36 hours at 28° C. at 250 RPM and 10 ml of the culture was used to innoculate 500 ml LB+antibiotics in a 2-liter flask. This culture was incubated overnight at 28° C. with shaking at 250 RPM. […]

[7] = target: USP-VP16 chimeric receptor polypeptide (Drosophila; herpes simplex virus) (UniProt P20153); assay: cell-based or functional assay
[8] = Experiment #1, 35S/GAL4-EcR^330-825-C1 + 35S/USP-VP16, target (GAL4b.s.)10-Bz1TATA/Luc, no ligand 277,862

**Q.** With `COC(C)(C)CCCC(C)C/C=C/C(C)=C/C(=O)O` (centres unmarked) [methoprene acid] as the molecule, how does the “RXRα-mediated transcriptional activation of a recombinant reporter gene” value [1] read?
**A.** The value was “transcriptionally activate”.

**Q.** What about the “Activation / response of USP” value [2] of the same molecule?
**A.** Its value is “does not respond”.

**Q.** Which “RXRα-mediated transcriptional activation of a recombinant reporter gene” value [1] does the source give for Juvenile hormone here?
**A.** The value was “does not induce”.

**Q.** Which results are given for `COC(C)(C)CCC[C@H](C)C/C=C/C(C)=C/C(=O)OC(C)C` (racemic) [Methoprene]?
**A.** Luciferase Activity [3, 8]: 14,786 light units; Luciferase Activity ([3]; Experiment #2, 35S/GAL4-EcR^330-825-C1 + 35S/USP-VP16, target (GAL4b.s.)10-Bz1TATA/Luc, no ligand 178,092): 5,730 light units; Effect on tebufenozide-induced activation of luciferase gene expression ([4]; 10 μM methoprene with 10 μM tebufenozide): completely blocked; RXRα-mediated transcriptional activation of a recombinant reporter gene [1]: transcriptionally activate; Luciferase Activity [5]: 485,458 light units; Fold increase in luciferase activity [6]: 25 fold; Luciferase Activity [6]: 15,790 light units

**Q.** Which Luciferase Activity (light units) of the (GAL4b.s.)10-Bz1TATA/Luc reporter in maize cells, Experiment #1, no chemical ligand [7] does the source give for “GAL4-EcR^330-825-C1 chimeric receptor polypeptide (from UniProt P04386 1-147; P34021 330-825; P10290 219-273)” here?
**A.** Its Luciferase Activity (light units) of the (GAL4b.s.)10-Bz1TATA/Luc reporter in maize cells, Experiment #1, no chemical ligand is 278000 light units.

**Q.** What about the Luciferase Activity (light units) of the (GAL4b.s.)10-Bz1TATA/Luc reporter in maize cells, Experiment #1, with 10 uM Fenoxycarb [7] of the same molecule?
**A.** Its Luciferase Activity (light units) of the (GAL4b.s.)10-Bz1TATA/Luc reporter in maize cells, Experiment #1, with 10 uM Fenoxycarb is 77400 light units.

**Q.** What about the Luciferase Activity (light units) of the (GAL4b.s.)10-Bz1TATA/Luc reporter in maize cells, Experiment #1, with 10 uM Methoprene [7] of the same molecule?
**A.** The Luciferase Activity (light units) of the (GAL4b.s.)10-Bz1TATA/Luc reporter in maize cells, Experiment #1, with 10 uM Methoprene was 14800 light units.

**Q.** And the Luciferase Activity (light units) of the (GAL4b.s.)10-Bz1TATA/Luc reporter in maize cells, Experiment #2, no chemical ligand [7]?
**A.** Its Luciferase Activity (light units) of the (GAL4b.s.)10-Bz1TATA/Luc reporter in maize cells, Experiment #2, no chemical ligand is 178000 light units.

**Q.** What about the Luciferase Activity (light units) of the (GAL4b.s.)10-Bz1TATA/Luc reporter in maize cells, Experiment #2, with 10 uM Methoprene [7] of the same molecule?
**A.** The Luciferase Activity (light units) of the (GAL4b.s.)10-Bz1TATA/Luc reporter in maize cells, Experiment #2, with 10 uM Methoprene was 5730 light units.

**Q.** And the Luciferase Activity (light units) of the (GAL4b.s.)10-Bz1TATA/Luc reporter in maize cells, with 10 uM Tebufenozide [7]?
**A.** Its Luciferase Activity (light units) of the (GAL4b.s.)10-Bz1TATA/Luc reporter in maize cells, with 10 uM Tebufenozide is 909000 light units.

**Q.** What about the Luciferase Activity (light units) of the (GAL4b.s.)10-Bz1TATA/Luc reporter in maize cells, with 10 uM Tebufenozide + 10 uM Methoprene [7] of the same molecule?
**A.** Its Luciferase Activity (light units) of the (GAL4b.s.)10-Bz1TATA/Luc reporter in maize cells, with 10 uM Tebufenozide + 10 uM Methoprene is 160000 light units.

**Q.** And the level of tebufenozide-induced activation of luciferase gene expression (fold increase, tebufenozide alone) [7]?
**A.** The level of tebufenozide-induced activation of luciferase gene expression (fold increase, tebufenozide alone) was 6 fold.

**Q.** What does the source list for `CCc1ccc(C(=O)NN(C(=O)c2cc(C)cc(C)c2)C(C)(C)C)cc1` [Tebufenozide]?
**A.** Tebufenozide-induced activation of luciferase gene expression, fold increase when used alone ([4]; 10 μM): approximately 6 fold; Luciferase Activity ([4]; 35S/GAL4-EcR^330-825-C1 + 35S/USP-VP16, target (GAL4b.s.)10-Bz1TATA/Luc, 10 μM each ligand, no ligand 178,092): 908,912 light units

**Q.** Which “Luciferase Activity” value [3, 8] does the source give for `CCOC(=O)NCCOc1ccc(Oc2ccccc2)cc1` [Fenoxycarb, ethyl [2-(4-phenoxyphenoxy)ethyl]carbamate] here?
**A.** The value was 77,418 light units.

**Q.** And the “Fold increase in luciferase activity” value [6]?
**A.** The value was 6.2 fold.

**Q.** And the “Luciferase Activity” value [6]?
**A.** Its value is 3,991 light units.
